According to PubChem BioAssay (NCI):
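Five compound concentrations were applied to cells in 96-well plates for 48 hours; endpoints were derived by simple linear interpolation of the resulting dose-response curve. The concentration for full growth arrest is given as TGI.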

How the values were obtained:
Experiment in all cases: NCI tumour cell line growth inhibition, 48 h
NCI/ADR-RES ovarian = system: NCI/ADR-RES ovarian
NCI-H226 lung = system: NCI-H226 lung
MALME-3M melanoma = system: MALME-3M melanoma
SF-539 CNS = system: SF-539 CNS
A498 renal = system: A498 renal
EKVX NSCLC = system: EKVX NSCLC
NCI-H522 lung = system: NCI-H522 lung
A549 NSCLC = system: A549 NSCLC
MDA-MB-231 breast = system: MDA-MB-231 breast
786-0 renal = system: 786-0 renal
M14 melanoma = system: M14 melanoma

Compound | TGI (NCI/ADR-RES ovarian) [µM] | TGI (NCI-H226 lung) [µM] | TGI (MALME-3M melanoma) [µM] | TGI (SF-539 CNS) [µM] | TGI (A498 renal) [µM] | TGI (EKVX NSCLC) [µM] | TGI (NCI-H522 lung) [µM] | TGI (A549 NSCLC) [µM] | TGI (MDA-MB-231 breast) [µM] | TGI (786-0 renal) [µM] | TGI (M14 melanoma) [µM]
COc1c2ccoc2c(S(=O)(=O)Nc2ccc(Cl)cc2)c2oc(C)cc(=O)c12 | > 100 | > 100 | > 100 | > 93.9 | > 100 | > 100 | > 100 | > 100 | – | – | –
Cc1onc(-c2c(F)cccc2Cl)c1C(=O)N[C@@H]1C(=O)N2[C@@H]1SC(C)(C)[C@@H]2C(=O)O | > 100 | > 100 | > 100 | > 100 | > 100 | > 100 | > 100 | > 100 | > 100 | > 100 | > 100
FC(F)(F)C1=NC(=NNc2nnc(-c3ccccc3)c(-c3ccccc3)n2)N=C(C(F)(F)F)C1 | > 100 | > 100 | > 100 | > 100 | > 100 | > 100 | 53.6 | > 100 | – | – | –
O=C(/N=C/c1c(O)c2ccccc2oc1=O)NC1CCCCC1 | – | > 100 | – | > 100 | – | > 100 | – | > 100 | – | – | > 100
CCOC(=O)[C@H]1C[C@]23CN(C(=O)OC(C)(C)C)CC[C@H]2CCC2(SCCCS2)[C@@H]3N1C | > 100 | > 100 | 74.6 | > 100 | > 100 | 90.4 | > 100 | > 100 | – | > 100 | > 100
OC1(c2ccc3ccccc3c2)c2ccc3ccccc3c2C2=NCCN21 (stereo not drawn) | > 100 | – | > 100 | > 100 | > 100 | > 100 | – | > 100 | > 100 | 69.3 | > 100
Cc1ccc(S(=O)(=O)NCCSS(=O)(=O)c2ccc(C)cc2)cc1 | 72.3 | 49.6 | – | – | 67.2 | – | 38.5 | 63.5 | > 100 | – | –
CC[N+](CC)(CC)/C(=N/S(=O)(=O)c1cc(C)c(Cl)cc1S)[N-]S(=O)(=O)c1ccc(Cl)cc1 | > 100 | > 100 | – | > 100 | > 100 | > 100 | > 100 | – | > 100 | > 100 | > 100
C=C1C(=O)OC2/C=C(\C)CC(O)/C=C(/CO)CC(OC(=O)/C(C)=C/C)C12 (stereo not drawn) | 538 | 91 | 66.6 | 115 | 58.4 | 59.1 | 26.4 | 451 | – | – | –
ClCC1(CCl)COC1 | > 100 | > 100 | – | – | > 100 | – | > 100 | > 100 | > 100 | – | > 100
C[C@H](O)C(=O)SC[C@H](NC(=O)CC[C@@H](N)C(=O)O)C(=O)NCC(=O)O | – | > 100 | > 100 | – | – | > 100 | > 100 | – | – | – | > 100
CCCc1ccc(OCC(=O)N/N=C/c2c(-c3ccccc3)[nH]c3ccccc23)cc1 | 42.5 | 40.5 | > 100 | 42.5 | 31.8 | 92.8 | 82 | > 100 | 28.9 | 35.7 | 28.2
CCOc1cc(NC(C)=O)ccc1C(=O)NN1C(=O)CSC1c1ccc(O)c(OC)c1 (stereo not drawn) | > 100 | > 100 | > 100 | > 100 | > 100 | > 100 | > 100 | > 100 | > 100 | > 100 | > 100
